{"source": "patent US20260130901A1", "about": "“CGRP RECEPTOR ANTAGONIST FOR THE TREATMENT OF MIGRAINE” (ALLERGAN PHARMACEUTICALS INTERNATIONAL LIMITED, priority 2022, published 2026)", "format_in_all_cases": "in vivo, human", "key": {"[1]": {"system": "participants with migraine (qualifying prodrome events)", "experiment": "Phase 3 crossover study: satisfaction with study medication", "details": "100 mg in prodrome", "procedure": "(§1) A phase 3, multicenter, randomized, double-blind, placebo-controlled, crossover study was carried out to evaluate the efficacy, safety, and tolerability of oral ubrogepant in the acute treatment of migraine when administered during the prodrome. The study evaluated whether treatment during the initial phase of a migraine attack (i.e., the prodrome or premonitory phase) prior to the onset of headache, can attenuate the severity of the headache phase and reduce disability.\n(§2) Eligible participants were randomized (1:1) to treatment sequences A or B in this crossover study. Participants randomized to Treatment Sequence A received placebo to treat their first qualifying prodrome event and ubrogepant 100 mg to treat their second qualifying prodrome event. For those randomized to Treatment Sequence B, they received the reverse: ubrogepant 100 mg to treat their first qualifying prodrome event and placebo to treat their second qualifying prodrome event."}, "[2]": {"system": "participants with migraine (qualifying prodrome events)", "experiment": "Phase 3 crossover study: absence of aura at timepoints post dose", "details": "100 mg in prodrome, mITT", "procedure": "as §1, §2\nN1 is the number of patients with non-missing aura presence assessment at timepoint."}, "[3]": {"system": "participants with migraine (qualifying prodrome events)", "experiment": "Phase 3 crossover study: safety and tolerability, adverse events (safety population)", "procedure": "as §1, §2\nParticipant flow is illustrated in FIG. 2. The safety population included all treated participants who took at least one administration of study drug. The modified intent-to-treat (mITT) population included all randomized participants with at least one assessment of headache occurrence within 24 hours after taking double-blind study drug for at least one qualifying prodrome event. The most common reasons for failure to meet inclusion criteria were: lack of 3 to 16 recorded qualifying prodrome events during screening (144 of 317), failure to report headache of any intensity within 1 to 6 hours following at least 75% of qualifying prodrome events (123 of 317), and participant provided a negative response for the ability (by history) to identify migraine attacks in which prodromal symptoms were present and reliably (at least 75% of the time) followed by headache within 1 to 6 hours (23 of 317\nTables 20 and 21 provide an overall summary of adverse events during the double-blind treatment period for the safety population.\nThe most common TEAEs (≥2% in either treatment group) within 48 hours following administration of study intervention were nausea (placebo 15 of 462 [3.2%], ubrogepant 23 of 456 [5.0%]); dizziness (placebo 12 of 462 [2.6%], ubrogepant 11 of 456 [2.4%]), fatigue (placebo 7 of 462 [1.5%], ubrogepant 12 of 456 [2.6%]) and somnolence (placebo 5 of 462 [1.1%], ubrogepant 11 of 456 [2.4%]). Nausea (placebo 3.7%, ubrogepant 5.3%) was also the most common TEAE within 30 days following administration of study intervention."}, "[4]": {"details": "100 mg, within 48 hours following administration"}, "[5]": {"details": "100 mg, within 48 hours following administration, safety population"}, "[6]": {"details": "ubrogepant 100 mg (N = 456), within 48 hours following administration, safety population"}, "[7]": {"details": "ubrogepant 100 mg (N = 456), within 30 days following administration, safety population"}}}
{"smiles": "C[C@@H]1[C@H](c2ccccc2)C[C@H](NC(=O)c2cnc3c(c2)C[C@@]2(C3)C(=O)Nc3ncccc32)C(=O)N1CC(F)(F)F", "note": "[Ubrogepant, (3′S)—N-((3S,5S,6R)-6-methyl-2-oxo-5-phenyl-1-(2,2,2-trifluoroethyl)piperidin-3-yl)-2′-oxo-1′,2′,5,7-tetrahydrospiro[cyclopenta[b]pyridine-6,3′-pyrrolo[2,3-b]pyridine]-3-carboxamide]", "values": [{"measurement": "Satisfaction with study medication, Odds ratio vs placebo", "setting": "[1]; 8 Hours post-dose", "result": 2.37}, {"measurement": "Satisfaction with study medication, responder rate (%) (satisfied or extremely satisfied)", "setting": "[1]; 8 Hours post-dose", "result": "(66.0) %"}, {"measurement": "Satisfaction with study medication, Odds ratio vs placebo", "setting": "[1]; 24 Hours post-dose", "result": 2.32}, {"measurement": "Satisfaction with study medication, responder rate (%) (satisfied or extremely satisfied)", "setting": "[1]; 24 Hours post-dose", "result": "(65.6) %"}, {"measurement": "Satisfaction with study medication, responder rate (%) (satisfied or extremely satisfied)", "setting": "[1]; 24 Hours post-dose, listed as ubrogepant", "result": 65.6, "unit": "%"}, {"measurement": "Absence of aura, Nonresponder (%)", "setting": "[2]; 48 Hours post dose", "result": "(2.6) %"}, {"measurement": "Absence of aura, OR vs placebo", "setting": "[2]; 48 Hours post dose", "result": 3.05}, {"measurement": "Absence of aura, Responder (%)", "setting": "[2]; 48 Hours post dose", "result": "(97.4) %"}, {"measurement": "Absence of aura, Nonresponder (%)", "setting": "[2]; 1 hour post dose", "result": "(38.3) %"}, {"measurement": "Absence of aura, OR vs placebo", "setting": "[2]; 1 hour post dose", "result": 0.99}, {"measurement": "Absence of aura, Responder (%)", "setting": "[2]; 1 hour post dose", "result": "(61.7) %"}, {"measurement": "Absence of aura, Nonresponder (%)", "setting": "[2]; 2 hours post dose", "result": "(28.1) %"}, {"measurement": "Absence of aura, OR vs placebo", "setting": "[2]; 2 hours post dose", "result": 1.13}, {"measurement": "Absence of aura, Responder (%)", "setting": "[2]; 2 hours post dose", "result": "(71.9) %"}, {"measurement": "Absence of aura, Nonresponder (%)", "setting": "[2]; 3 hours post dose", "result": "(23.0) %"}, {"measurement": "Absence of aura, OR vs placebo", "setting": "[2]; 3 hours post dose", "result": 0.96}, {"measurement": "Absence of aura, Responder (%)", "setting": "[2]; 3 hours post dose", "result": "(77.0) %"}, {"measurement": "Absence of aura, Nonresponder (%)", "setting": "[2]; 4 hours post dose", "result": "(19.1) %"}, {"measurement": "Absence of aura, OR vs placebo", "setting": "[2]; 4 hours post dose", "result": 1.12}, {"measurement": "Absence of aura, Responder (%)", "setting": "[2]; 4 hours post dose", "result": "(80.9) %"}, {"measurement": "Absence of aura, Nonresponder (%)", "setting": "[2]; 6 hours post dose", "result": "(15.3) %"}, {"measurement": "Absence of aura, OR vs placebo", "setting": "[2]; 6 hours post dose", "result": 1.05}, {"measurement": "Absence of aura, Responder (%)", "setting": "[2]; 6 hours post dose", "result": "(84.7) %"}, {"measurement": "Absence of aura, Nonresponder (%)", "setting": "[2]; 8 hours post dose", "result": "(10.5) %"}, {"measurement": "Absence of aura, OR vs placebo", "setting": "[2]; 8 hours post dose", "result": 1.10}, {"measurement": "Absence of aura, Responder (%)", "setting": "[2]; 8 hours post dose", "result": "(89.5) %"}, {"measurement": "Absence of aura, Nonresponder (%)", "setting": "[2]; 24 hours post dose", "result": "(5.3) %"}, {"measurement": "Absence of aura, OR vs placebo", "setting": "[2]; 24 hours post dose", "result": 1.48}, {"measurement": "Absence of aura, Responder (%)", "setting": "[2]; 24 hours post dose", "result": "(94.7) %"}, {"measurement": "Safety results", "setting": "[3]; 100 mg in prodrome", "result": "generally consistent with the known safety profile of ubrogepant"}, {"measurement": "Tolerability", "setting": "[3]; 100 mg in prodrome", "result": "well-tolerated"}, {"measurement": "nausea, fatigue, dizziness, and somnolence, % of participants reporting", "setting": "[3]; 100 mg in prodrome", "result": "≤ 5", "unit": "%"}, {"measurement": "TEAE dizziness, % of participants", "setting": "[3]; [4]", "result": 2.4, "unit": "%"}, {"measurement": "TEAE fatigue, % of participants", "setting": "[3]; [4]", "result": 2.6, "unit": "%"}, {"measurement": "TEAE nausea, % of participants", "setting": "[3]; [4]", "result": 5.0, "unit": "%"}, {"measurement": "TEAE somnolence, % of participants", "setting": "[3]; [4]", "result": 2.4, "unit": "%"}, {"measurement": "Adverse event leading to discontinuation (ADO), % of participants", "setting": "[3]; [5]", "result": "(0.0) %"}, {"measurement": "Death, % of participants", "setting": "[3]; [5]", "result": "(0.0) %"}, {"measurement": "Treatment-emergent Serious adverse events (TESAE), % of participants", "setting": "[3]; [5]", "result": "(0.0) %"}, {"measurement": "Treatment-emergent adverse events (TEAE), % of participants", "setting": "[3]; [5]", "result": "(16.9) %"}, {"measurement": "Treatment-related TEAEs, % of participants", "setting": "[3]; [5]", "result": "(13.2) %"}, {"measurement": "Treatment-related TESAEs, % of participants", "setting": "[3]; [5]", "result": "(0.0) %"}, {"measurement": "TEAE nausea, % of participants", "setting": "[3]; 100 mg, within 30 days following administration", "result": 5.3, "unit": "%"}, {"measurement": "Discontinuation during the DB treatment period due to adverse events", "setting": "[3]; safety population", "result": "No participant was discontinued"}, {"measurement": "TEAE Dizziness, %", "setting": "[3]; [6]", "result": "(2.4) %"}, {"measurement": "TEAE Fatigue, %", "setting": "[3]; [6]", "result": "(2.6) %"}, {"measurement": "TEAE Nausea, %", "setting": "[3]; [6]", "result": "(5.0) %"}, {"measurement": "TEAE Somnolence, %", "setting": "[3]; [6]", "result": "(2.4) %"}, {"measurement": "Adverse event leading to discontinuation (ADO), %", "setting": "[3]; [7]", "result": "(0.0) %"}, {"measurement": "Death, %", "setting": "[3]; [7]", "result": "(0.0) %"}, {"measurement": "TEAE Dizziness, %", "setting": "[3]; [7]", "result": "(2.4) %"}, {"measurement": "TEAE Fatigue, %", "setting": "[3]; [7]", "result": "(2.6) %"}, {"measurement": "TEAE Nausea, %", "setting": "[3]; [7]", "result": "(5.3) %"}, {"measurement": "TEAE Somnolence, %", "setting": "[3]; [7]", "result": "(2.4) %"}, {"measurement": "Treatment-emergent Serious adverse events (TESAE), %", "setting": "[3]; [7]", "result": "(0.0) %"}, {"measurement": "Treatment-emergent adverse events (TEAE), %", "setting": "[3]; [7]", "result": "(19.7) %"}, {"measurement": "Treatment-related TEAEs, %", "setting": "[3]; [7]", "result": "(13.2) %"}, {"measurement": "Treatment-related TESAEs, %", "setting": "[3]; [7]", "result": "(0.0) %"}]}
